US5288720A, “Angiotensin II receptor blocking 2,3,6 substituted quinazolinones” (American Cyanamid Company, priority 1993, dated 1994)

Test system: ANGIOTENSIN II VASOPRESSOR RESPONSE
Experiment: AII Challenge: blockade of angiotensin II vasopressor response in conscious SHR
Format: in vivo, rat (Conscious Male Okamoto-Aoki SHR)
Conditions: SHR n=2
In short: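 Conscious male Okamoto-Aoki SHR (16-20 weeks, ~330 g) cannulated in aorta and vena cava under local procaine; angiotensin II (human) 0.05 and 0.1 ug/kg i.v. given before and at 30-300 min after test compound i.v., i.p. or orally. Rise in systolic pressure (mmHg) expressed as % blockade versus each rat's predose response.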

[1] = 3 mg/kg p.o., AII 0.05 mcg/kg IV, 30 min post dose
[2] = 3 mg/kg p.o., AII 0.05 mcg/kg IV, 60 min post dose
[3] = 3 mg/kg p.o., AII 0.05 mcg/kg IV, 90 min post dose
[4] = 3 mg/kg p.o., AII 0.05 mcg/kg IV, 120 min post dose
[5] = 3 mg/kg p.o., AII 0.05 mcg/kg IV, 180 min post dose
[6] = 3 mg/kg p.o., AII 0.05 mcg/kg IV, 240 min post dose
[7] = 3 mg/kg p.o., AII 0.05 mcg/kg IV, 300 min post dose
[8] = 3 mg/kg p.o., AII 0.1 mcg/kg IV, 30 min post dose
[9] = 3 mg/kg p.o., AII 0.1 mcg/kg IV, 60 min post dose
[10] = 3 mg/kg p.o., AII 0.1 mcg/kg IV, 90 min post dose
[11] = 3 mg/kg p.o., AII 0.1 mcg/kg IV, 120 min post dose
[12] = 3 mg/kg p.o., AII 0.1 mcg/kg IV, 180 min post dose
[13] = 3 mg/kg p.o., AII 0.1 mcg/kg IV, 240 min post dose
[14] = 3 mg/kg p.o., AII 0.1 mcg/kg IV, 300 min post dose
[15] = 10 mg/kg i.v., AII 0.05 mcg/kg IV, 30 min post dose
[16] = 10 mg/kg i.v., AII 0.05 mcg/kg IV, 60 min post dose
[17] = 10 mg/kg i.v., AII 0.05 mcg/kg IV, 90 min post dose
[18] = 10 mg/kg i.v., AII 0.05 mcg/kg IV, 120 min post dose
[19] = 10 mg/kg i.v., AII 0.05 mcg/kg IV, 180 min post dose
[20] = 10 mg/kg i.v., AII 0.05 mcg/kg IV, 240 min post dose
[21] = 10 mg/kg i.v., AII 0.05 mcg/kg IV, 300 min post dose
[22] = 10 mg/kg i.v., AII 0.1 mcg/kg IV, 30 min post dose
[23] = 10 mg/kg i.v., AII 0.1 mcg/kg IV, 60 min post dose
[24] = 10 mg/kg i.v., AII 0.1 mcg/kg IV, 90 min post dose
[25] = 10 mg/kg i.v., AII 0.1 mcg/kg IV, 120 min post dose
[26] = 10 mg/kg i.v., AII 0.1 mcg/kg IV, 180 min post dose
[27] = 10 mg/kg i.v., AII 0.1 mcg/kg IV, 240 min post dose
[28] = 10 mg/kg i.v., AII 0.1 mcg/kg IV, 300 min post dose

SMILES: CCCCc1nc2ccc(C(OC)C3CCCN(C)C3=O)cc2c(=O)n1Cc1ccc(-c2ccccc2-c2nn[nH]n2)cc1 (single isomer, unassigned; isomer 2) [Example 43, 2-Butyl-6-[methoxy(1-methyl-2-oxo-3-piperidinyl)methyl]-3-[[2'-(1H-tetrazol-5-yl)[1,1'-biphenyl]-4-yl]methyl]-4(3H)-quinazoline isomer 2]
- % Inhibition of AII vasopressor response [1]: 24%
- Average Change (systolic blood pressure response to AII) [1]: 32.5 mmHg
- % Inhibition of AII vasopressor response [2]: 47%
- Average Change (systolic blood pressure response to AII) [2]: 22.5 mmHg
- % Inhibition of AII vasopressor response [3]: 53%
- Average Change (systolic blood pressure response to AII) [3]: 20 mmHg
- % Inhibition of AII vasopressor response [4]: 53%
- Average Change (systolic blood pressure response to AII) [4]: 20 mmHg
- % Inhibition of AII vasopressor response [5]: 59%
- Average Change (systolic blood pressure response to AII) [5]: 17.5 mmHg
- % Inhibition of AII vasopressor response [6]: 35%
- Average Change (systolic blood pressure response to AII) [6]: 27.5 mmHg
- % Inhibition of AII vasopressor response [7]: 6%
- Average Change (systolic blood pressure response to AII) [7]: 40 mmHg
- % Inhibition of AII vasopressor response [8]: 19%
- Average Change (systolic blood pressure response to AII) [8]: 32.5 mmHg
- % Inhibition of AII vasopressor response [9]: 19%
- Average Change (systolic blood pressure response to AII) [9]: 32.5 mmHg
- % Inhibition of AII vasopressor response [10]: 56%
- Average Change (systolic blood pressure response to AII) [10]: 17.5 mmHg
- % Inhibition of AII vasopressor response [11]: 44%
- Average Change (systolic blood pressure response to AII) [11]: 22.5 mmHg
- % Inhibition of AII vasopressor response [12]: 6%
- Average Change (systolic blood pressure response to AII) [12]: 37.5 mmHg
- % Inhibition of AII vasopressor response [13]: 13%
- Average Change (systolic blood pressure response to AII) [13]: 35 mmHg
- % Inhibition of AII vasopressor response [14]: 8%
- Average Change (systolic blood pressure response to AII) [14]: 37 mmHg
- % Inhibition of AII vasopressor response [15]: 100%
- Average Change (systolic blood pressure response to AII) [15]: 0 mmHg
- % Inhibition of AII vasopressor response [16]: 77%
- Average Change (systolic blood pressure response to AII) [16]: 7.5 mmHg
- % Inhibition of AII vasopressor response [17]: 69%
- Average Change (systolic blood pressure response to AII) [17]: 10 mmHg
- % Inhibition of AII vasopressor response [18]: 69%
- Average Change (systolic blood pressure response to AII) [18]: 10 mmHg
- % Inhibition of AII vasopressor response [19]: 58%
- Average Change (systolic blood pressure response to AII) [19]: 13.5 mmHg
- % Inhibition of AII vasopressor response [20]: 0%
- Average Change (systolic blood pressure response to AII) [20]: 32.5 mmHg
- % Inhibition of AII vasopressor response [21]: 8%
- Average Change (systolic blood pressure response to AII) [21]: 30 mmHg
- % Inhibition of AII vasopressor response [22]: 92%
- Average Change (systolic blood pressure response to AII) [22]: 2.5 mmHg
- % Inhibition of AII vasopressor response [23]: 84%
- Average Change (systolic blood pressure response to AII) [23]: 5 mmHg
- % Inhibition of AII vasopressor response [24]: 84%
- Average Change (systolic blood pressure response to AII) [24]: 5 mmHg
- % Inhibition of AII vasopressor response [25]: 68%
- Average Change (systolic blood pressure response to AII) [25]: 10 mmHg
- % Inhibition of AII vasopressor response [26]: 44%
- Average Change (systolic blood pressure response to AII) [26]: 17.5 mmHg
- % Inhibition of AII vasopressor response [27]: 56%
- Average Change (systolic blood pressure response to AII) [27]: 13.5 mmHg
- % Inhibition of AII vasopressor response [28]: 19%
- Average Change (systolic blood pressure response to AII) [28]: 25 mmHg
